# Source: ChEMBL document CHEMBL5537200, “Discovery of Artemisinins as Microsomal Prostaglandins Synthase-2 Inhibitors for the Treatment of Colorectal Cancer via Chemoproteomics” (J Med Chem, 2024)
# pIC50: −log10 of the molar value. Active and inactive are the calls of the source. The calls are words filed in the database; no cut-off is given here.
# Experiments:
# [1] = tested on: HCT-116; test: Antiproliferative activity against human HCT-116 cells assessed as inhibition of cell growth by Cell-titer Glo luminescent assay; type: functional, cell-based
# [2] = tested on: HCT-116; test: Growth inhibition of human HCT-116 cells incubated for 24 hrs by Cell-titer Glo luminescent assay; type: functional
# [3] = tested on: HCT-116; test: Growth inhibition of human HCT-116 cells incubated for 48 hrs by Cell-titer Glo luminescent assay; type: functional
# [4] = tested on: HCT-116; test: Growth inhibition of human HCT-116 cells incubated for 72 hrs by Cell-titer Glo luminescent assay; type: functional
# [5] = target: T1, Prostaglandin E synthase 2 (Homo sapiens, UniProt Q9H7Z7); conditions: HCT-116, dose 20.0 µM, time 2.0 hrs
# [6] = target: T1, Prostaglandin E synthase 2; test: Binding affinity to heme-free recombinant mPGES-2 (unknown origin) at 1 uM incubated for 1 hr pretreated with GSH addition by competitive labeling gel fluorescence assay
# [7] = target: T1, Prostaglandin E synthase 2; test: Binding affinity to heme-bound recombinant mPGES-2 (unknown origin) at 1 uM in presence of H2O2 under UV irradiation by coomassie blue staining assay
# [8] = target: T1, Prostaglandin E synthase 2; test: Inhibition of mPGES-2 in human HCT-116 cells assessed as downregulation of mPGES-2 expression at 10 uM incubated for 3 hrs by SDS-PAGE based pull-down assay; type: cell-based
# [9] = target: T1, Prostaglandin E synthase 2; test: Binding affinity to heme-free recombinant mPGES-2 (unknown origin) at 1 uM incubated for 1 hr pretreated with PGH2 addition by competitive labeling gel fluorescence assay
# [10] = target: T1, Prostaglandin E synthase 2; test: Binding affinity to heme-bound recombinant mPGES-2 (unknown origin) at 1 uM in presence of H2O2 without UV irradiation by coomassie blue staining assay
# [11] = target: T1, Prostaglandin E synthase 2; test: Binding affinity to heme-free recombinant mPGES-2 (unknown origin) at 1 uM incubated for 1 hr followed by ART addition for 30 mins by competitive labeling gel fluorescence assay; conditions: time 1.5 hrs
# [12] = target: T1, Prostaglandin E synthase 2; test: Binding affinity to heme-bound recombinant mPGES-2 (unknown origin) at 1 uM in presence of NaVc under UV irradiation by coomassie blue staining assay
# [13] = target: T1, Prostaglandin E synthase 2; test: Binding affinity to heme-free recombinant mPGES-2 (unknown origin) at 1 uM under UV irradiation by coomassie blue staining assay
# [14] = target: T1, Prostaglandin E synthase 2; test: Inhibition of mPGES-2 in human HCT-116 cells assessed as downregulation of mPGES-2 expression at 10 uM incubated for 3 hrs under UV irradiation by SDS-PAGE based pull-down assay; type: cell-based
# [15] = target: T1, Prostaglandin E synthase 2; test: Binding affinity to heme-free recombinant mPGES-2 (unknown origin) at 1 uM in presence of H2O2 under UV irradiation by coomassie blue staining assay
# [16] = target: T1, Prostaglandin E synthase 2; test: Binding affinity to heme-free recombinant mPGES-2 (unknown origin) at 1 uM in presence of NaVc under UV irradiation by coomassie blue staining assay
# [17] = target: T1, Prostaglandin E synthase 2; test: Inhibition of heme-free recombinant mPGES-2 (unknown origin) at 100 uM by dilution assay relative to control
# [18] = target: T1, Prostaglandin E synthase 2; test: Inhibition of heme-free recombinant mPGES-2 (unknown origin) pre-incubated with compound for 15 mins followed by PGH2 addition measured after 5 min by ELISA
# [19] = target: T1, Prostaglandin E synthase 2
# Description: Displacement of ART-P1 from heme-free recombinant mPGES-2 (unknown origin) assessed as inhibition of ART-P1 binding to mPGES-2 incubated for 1 hr followed by ART-P1 addition for 30 mins by competitive labeling gel fluorescence assay
# [20] = target: T1, Prostaglandin E synthase 2; test: Inhibition of heme-free recombinant mPGES-2 (unknown origin) pre-incubated with compound for 15 mins followed by PGH2 addition measured after 60 min by ELISA
# [21] = tested on: Caco-2; test: Antiproliferative activity against human Caco-2 cells assessed as inhibition of cell growth at 50 uM incubated for 48 hrs in presence of aminolevulinic acid by Cell-titer Glo luminescent assay; type: functional, cell-based
# [22] = tested on: HCT-116; test: Antiproliferative activity against human HCT-116 cells assessed as reduction in cell growth at 50 uM by Cell-titer Glo luminescent assay; type: functional, cell-based
# [23] = tested on: HCT-116; test: Antiproliferative activity against human HCT-116 cells assessed as reduction in cell growth at 10 to 20 uM by Cell-titer Glo luminescent assay; type: functional, cell-based; conditions: dose 10-20 µM
# [24] = target: T1, Prostaglandin E synthase 2; test: Inhibition of heme-free recombinant mPGES-2 (unknown origin) pre-incubated with compound for 15 mins followed by PGH2 addition measured after 10 min by ELISA
# [25] = tested on: SW-620; test: Antiproliferative activity against human SW620 cells assessed as inhibition of cell growth incubated for 48 hrs by Cell-titer Glo luminescent assay; type: functional, cell-based
# [26] = tested on: SW-620; test: cells; conditions: Homo sapiens, SW-620, 48 h, read-out: INH
# Description: Antiproliferative activity against human SW620 cells assessed as inhibition of cell growth at 50 uM incubated for 48 hrs in presence of succinylacetone by Cell-titer Glo luminescent assay relative to control
# [27] = tested on: HCT-116; test: Antiproliferative activity against SiRNA mediated mPGES-2 knockdown human HCT-116 cells assessed as reduction in cell growth by Cell-titer Glo luminescent assay; type: functional, cell-based
# [28] = tested on: HCT-116; test: Antiproliferative activity against human HCT-116 cells assessed as inhibition of cell growth incubated for 48 hrs by Cell-titer Glo luminescent assay; type: functional, cell-based
# [29] = target: T1, Prostaglandin E synthase 2; test: Inhibition of heme-free recombinant mPGES-2 (unknown origin) pre-incubated with compound for 15 mins followed by PGH2 addition measured after 1 min by ELISA
# [30] = tested on: HCT-116; test: cells; conditions: Homo sapiens, HCT-116, 48 h, read-out: INH
# Description: Antiproliferative activity against human HCT-116 cells assessed as inhibition of cell growth at 50 uM incubated for 48 hrs in presence of succinylacetone by Cell-titer Glo luminescent assay relative to control
# [31] = tested on: SW-620; test: Antiproliferative activity against human SW620 cells assessed as inhibition of cell growth at 50 uM incubated for 48 hrs in presence of aminolevulinic acid by Cell-titer Glo luminescent assay; type: functional, cell-based
# [32] = target: T1, Prostaglandin E synthase 2; test: Inhibition of heme-free recombinant mPGES-2 (unknown origin) pre-incubated with compound for 15 mins followed by PGH2 addition measured after 30 min by ELISA
# [33] = tested on: HCT-116; test: Antiproliferative activity against human HCT-116 cells assessed as inhibition of cell growth at 50 uM incubated for 48 hrs in presence of aminolevulinic acid by Cell-titer Glo luminescent assay; type: functional, cell-based
# T1 sequence (Q9H7Z7 whole entry): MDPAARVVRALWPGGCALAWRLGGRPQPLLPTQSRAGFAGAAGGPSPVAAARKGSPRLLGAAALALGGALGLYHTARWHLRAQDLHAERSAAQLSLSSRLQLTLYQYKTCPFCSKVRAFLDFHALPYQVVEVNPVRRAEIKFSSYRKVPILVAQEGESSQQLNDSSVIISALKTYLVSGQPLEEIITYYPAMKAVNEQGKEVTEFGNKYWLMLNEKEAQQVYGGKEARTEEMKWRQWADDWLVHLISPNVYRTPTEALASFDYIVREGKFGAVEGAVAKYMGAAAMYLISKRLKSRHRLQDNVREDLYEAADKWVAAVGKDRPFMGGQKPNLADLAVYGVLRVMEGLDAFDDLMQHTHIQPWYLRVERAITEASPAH
smiles,measurement,setting,value
C[C@H]1[C@@H](CCCO)O[C@@H]2O[C@]3(C)CC[C@H]4[C@H](C)CC[C@@H]1[C@@]24OO3,pIC50,[1],4.42
C[C@H]1[C@@H](OC(=O)c2ccccc2)O[C@@H]2O[C@]3(C)CC[C@H]4[C@H](C)CC[C@@H]1[C@@]24OO3,pIC50,[1],5.41
C=CC[C@H]1O[C@@H]2O[C@]3(C)CC[C@H]4[C@H](C)CC[C@@H]([C@H]1C)[C@@]24OO3,pIC50,[1],5.07
C#CCCC1(CCN2CCN(CCC[C@H]3O[C@@H]4O[C@]5(C)CC[C@H]6[C@H](C)CC[C@@H]([C@H]3C)[C@@]46OO5)CC2)N=N1,GI50,[2],53.1 µM
same,GI50,[3],35.9 µM
same,GI50,[4],22.5 µM
C#CCN(CCC[C@H]1O[C@@H]2O[C@]3(C)CC[C@H]4[C@H](C)CC[C@@H]([C@H]1C)[C@@]24OO3)C(=O)CCC1(C)N=N1,Tm,[5],46.9 °C
same,GI50,[2],13.4 µM
same,Activity,[6],Active
same,Activity,[7],inactive
same,inhibition,[8],Active
same,Activity,[9],inactive
same,Activity,[10],inactive
same,Activity,[11],inactive
same,Activity,[12],Active
same,Activity,[13],Active
same,inhibition,[14],Active
same,GI50,[3],5.1 µM
same,GI50,[4],3.9 µM
same,Activity,[15],inactive
same,Activity,[16],inactive
C[C@H]1[C@@H](CCCN2CCNCC2)O[C@@H]2O[C@]3(C)CC[C@H]4[C@H](C)CC[C@@H]1[C@@]24OO3,pIC50,[1],< 4.30
NC(=O)CI,inhibition,[17],inactive
CO[C@H]1O[C@@H]2O[C@@]3(C)CC[C@H]4[C@H](C)CC[C@@H]([C@H]1C)[C@@]24OO3 [ARTEMETHER],pIC50,[1],5.07
C[C@@H]1CC[C@H]2[C@@H](C)C(=O)O[C@@H]3O[C@@]4(C)CC[C@@H]1[C@]32OO4 [ARTEMISININ],pIC50,[18],5.00
same,pIC50,[19],5.06
same,pIC50,[20],5.06
same,Tm,[5],62.5 °C
same,GI50,[2],22.5 µM
same,Activity,[21],inactive
same,Activity,[22],Active
same,Activity,[23],Active
same,pIC50,[24],4.99
same,pIC50,[1],5.14
same,Activity,[25],Active
same,inhibition at 50 µM,[26],> 50%
same,Activity,[27],inactive
same,Activity,[28],Active
same,pIC50,[29],4.97
same,inhibition at 50 µM,[30],> 50%
same,GI50,[3],7.2 µM
same,Activity,[31],inactive
same,GI50,[4],4.3 µM
same,pIC50,[32],5.05
same,Activity,[33],inactive
C[C@H]1[C@@H](O)O[C@@H]2O[C@@]3(C)CC[C@H]4[C@H](C)CC[C@@H]1[C@@]24OO3 [ARTENIMOL],pIC50,[1],4.87
C[C@H]1[C@H](OC(=O)CCC(=O)O)O[C@@H]2O[C@@]3(C)CC[C@H]4[C@H](C)CC[C@@H]1[C@@]24OO3 [ARTESUNATE],pIC50,[1],6.34
C[C@@H]1CC[C@H]2[C@@H](C)C(=O)O[C@@H]3O[C@@]4(C)CC[C@@H]1[C@]32O4 [DEOXYARTEMISININ],pIC50,[19],< 4.30
same,Tm,[5],63.4 °C
same,pIC50,[1],< 4.30
